Source: patent publication US4233296A, “11β-Substituted-Δ^4,9 -estradienes” (Roussel Uclaf, priority 1977, dated 1980)

Experiments:
[1] = target: T1, specific uterine reception of progesterone (progesterone receptor, uterus cytosol) (Oryctolagus cuniculus, UniProt P06186); test: Progestomimetic activity: hormonal receptor method, displacement of tritiated 17,21-dimethyl-19-nor-Δ4,9-pregnadiene-3,20-dione in uterus cytosol; format: binding, rabbit; details: for affinity for uterine progesterone receptor compared with progesterone (in words): conclusion from Table VI; for ARL (relative affinity of the test product): progesterone = 100, from CP and CX (concentrations inhibiting by 50% the fixation of tritiated product R), immature rabbit uterus cytosol, 0° C., 2 hours
T1 construct: the uterus was removed and homogenized in a buffered solution; from tissue; host or cells: uterus cytosol (105,000 g supernatant) of estradiol-primed immature rabbits
T1 sequence (P06186 1-930): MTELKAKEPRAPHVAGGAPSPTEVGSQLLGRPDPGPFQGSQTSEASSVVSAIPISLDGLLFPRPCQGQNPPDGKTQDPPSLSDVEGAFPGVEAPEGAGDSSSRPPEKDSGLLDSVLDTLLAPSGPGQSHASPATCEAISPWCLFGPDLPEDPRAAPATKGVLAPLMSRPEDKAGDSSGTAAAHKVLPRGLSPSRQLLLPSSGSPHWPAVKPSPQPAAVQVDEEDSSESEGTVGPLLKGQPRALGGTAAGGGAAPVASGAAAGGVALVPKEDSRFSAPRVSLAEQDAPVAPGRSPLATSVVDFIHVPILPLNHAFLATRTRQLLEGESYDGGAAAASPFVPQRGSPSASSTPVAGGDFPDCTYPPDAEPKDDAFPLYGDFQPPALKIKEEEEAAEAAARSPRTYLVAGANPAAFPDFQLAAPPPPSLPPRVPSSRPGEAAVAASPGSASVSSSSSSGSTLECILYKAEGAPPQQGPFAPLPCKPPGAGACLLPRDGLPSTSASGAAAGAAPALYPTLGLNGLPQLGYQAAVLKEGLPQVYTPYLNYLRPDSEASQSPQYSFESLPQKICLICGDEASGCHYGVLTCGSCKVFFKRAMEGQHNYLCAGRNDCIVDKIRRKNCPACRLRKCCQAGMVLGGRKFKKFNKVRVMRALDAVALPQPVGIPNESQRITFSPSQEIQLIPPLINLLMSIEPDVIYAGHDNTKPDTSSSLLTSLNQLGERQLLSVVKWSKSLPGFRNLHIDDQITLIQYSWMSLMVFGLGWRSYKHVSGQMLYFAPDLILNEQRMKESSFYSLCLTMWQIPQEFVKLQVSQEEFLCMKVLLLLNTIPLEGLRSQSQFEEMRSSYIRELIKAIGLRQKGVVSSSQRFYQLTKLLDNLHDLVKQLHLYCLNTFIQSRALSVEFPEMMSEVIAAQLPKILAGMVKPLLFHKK
Procedure: The progestomimetic activity was determined for 11β-vinyl-17α-methyl-17β-acetyl-Δ^4,9 -estradiene-3-one [product A], 11β-vinyl-17α-acetoxy-17β-acetyl-Δ^4,9 -estradiene-3-one [product B] and 11β-vinyl-17α-ethynyl-Δ^4,9 -estradiene-17α-ol-3-one [product C] was determined by the hormonal receptor method of Raynaud et al [J. Ster. Biochem., Vol. 6 (1975), p-615-622 and Physiology and Genetics of Reproduction, part A (1975), p. 143-160]. Immature rabbits received subcutaneously 25γ of estradiol and 5 days later, the animals were sacrificed and the uterus was removed and homogenized in a buffered solution of 10 mm of tromethamine, 0.25 M of saccharose and a pH of 7.4 with hydrochloric acid. The homogenate was centrifuged at 105,000 g per hour and the surnageant or cytosol was adjusted to a dilution of 1/50 (weight/volume). […] The radioactivity of the tritiated product R was determined after 2 hours by the technique of adsorption on carbon-dextran (1.25-0.625%). The curves representing the percentage of tritiated product R as a function of the log of the concentration, of cold product R, of progesterone or the test products and the I50 straight line parallel to the axis of the abcisses and ordinates were plotted. [formula] B/T max. is the percentage of tied tritiated product R when the product is not added and B/T min. is the percentage of tied tritiated product R when the maximum amount of cold product R is added. The intersections of these I50 straight lines and the curves permit the determination of the values: CP - concentration of cold progesterone which inhibits by 50% the fixation of the tritiated product R and CX-concentration of test product which inhibits by 50% the fixation of tritiated product R. The relative affinity of the test product (ARL) was determined by the formula [formula] and the results are reported in Table VI.

[2] = target: T2, prostatic androgenic reception of testosterone (androgen receptor, prostate cytosol) (Rattus norvegicus, UniProt P15207); test: Androgenic activity: hormonal receptor method, displacement of tritiated 17α-methyl-Δ4,9,11-estratriene-17β-ol-3-one in prostate cytosol; format: binding
T2 construct: The prostate was recovered from male rats castrated 24 hours earlier and was homogenized; from tissue; host or cells: prostate cytosol (105,000 g supernatant) of male rats castrated 24 hours earlier
T2 sequence (P15207 1-902): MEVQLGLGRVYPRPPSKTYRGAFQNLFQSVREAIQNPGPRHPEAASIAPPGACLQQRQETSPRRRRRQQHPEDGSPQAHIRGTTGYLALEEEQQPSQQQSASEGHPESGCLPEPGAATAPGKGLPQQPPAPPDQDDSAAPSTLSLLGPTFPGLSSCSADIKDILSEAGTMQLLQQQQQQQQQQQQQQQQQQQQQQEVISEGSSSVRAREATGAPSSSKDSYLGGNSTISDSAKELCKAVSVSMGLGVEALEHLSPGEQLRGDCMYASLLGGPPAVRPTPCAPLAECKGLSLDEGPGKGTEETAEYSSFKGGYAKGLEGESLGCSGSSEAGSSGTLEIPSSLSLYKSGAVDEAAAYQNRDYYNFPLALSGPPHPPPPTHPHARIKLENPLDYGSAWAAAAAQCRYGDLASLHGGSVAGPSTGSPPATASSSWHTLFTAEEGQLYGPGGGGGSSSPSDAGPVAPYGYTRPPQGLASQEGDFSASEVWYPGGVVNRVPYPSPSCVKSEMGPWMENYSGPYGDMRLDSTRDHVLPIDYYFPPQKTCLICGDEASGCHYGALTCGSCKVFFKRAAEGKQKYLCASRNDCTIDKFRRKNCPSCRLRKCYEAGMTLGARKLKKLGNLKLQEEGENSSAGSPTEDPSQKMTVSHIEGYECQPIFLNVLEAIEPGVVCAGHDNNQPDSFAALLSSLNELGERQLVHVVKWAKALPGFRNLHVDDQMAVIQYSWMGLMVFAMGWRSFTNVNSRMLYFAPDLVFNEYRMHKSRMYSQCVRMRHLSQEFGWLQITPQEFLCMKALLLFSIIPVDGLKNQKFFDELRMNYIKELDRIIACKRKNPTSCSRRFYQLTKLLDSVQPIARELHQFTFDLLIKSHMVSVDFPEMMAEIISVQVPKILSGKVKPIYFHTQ
Procedure: This test also used the method of Raynaud et al discussed above. The prostate was recovered from male rats castrated 24 hours earlier and was homogenized in a buffer containing 10 mm of tromethamine and 0.25 M of saccharose and sufficient hydrochloric acid for a pH of 7.4. The homogenate was centrifuged at 105,000 g for one hour and the surnageant liquid or cytosol was adjusted to a dilution of 1/5 (weight/volume).
The radioactivity of the tied tritiated product was determined after 2 hours by absorption technique on carbon-dextran (1.25%-0.625%). […] [formula] were ploted. B/T max. is the percentage of tied tritiated product R when the product is not added and B/T min. is the percentage of tied tritiated product R when the maximum amount of cold product R is added.

Compound	affinity for uterine progesterone receptor compared with progesterone (in words) [1]	ARL (relative affinity of the test product) [1]	affinity for prostatic androgen receptor compared with testosterone (in words) ([2]; conclusion from Table VII)	ARL (relative affinity of the test product) ([2]; testosterone = 100, from CT and CX (concentrations inhibiting by 50% the fixation of tritiated product R), castrated rat prostate cytosol, 0° C., 2 hours)
C=C[C@H]1C[C@@]2(C)[C@@H](CC[C@]2(C)C(C)=O)[C@@H]2CCC3=CC(=O)CCC3=C21 [Product A, 11β-vinyl-17α-methyl-17β-acetyl-Δ^4,9-estradiene-3-one]	greater affinity for specific uterine reception of progesterone than progesterone	160	–	–
C=C[C@H]1C[C@@]2(C)[C@@H](CC[C@]2(OC(C)=O)C(C)=O)[C@@H]2CCC3=CC(=O)CCC3=C21 [Product B, 11β-vinyl-17α-acetoxy-17β-acetyl-Δ^4,9-estradiene-3-one]	greater affinity for specific uterine reception of progesterone than progesterone	120	–	–
C#C[C@]1(O)CC[C@H]2[C@@H]3CCC4=CC(=O)CCC4=C3[C@@H](C=C)C[C@@]21C [Product C, 11β-vinyl-17α-ethynyl-Δ^4,9-estradiene-17β-ol-3-one]	greater affinity for specific uterine reception of progesterone than progesterone	150	–	–
C=C(C)[C@H]1C[C@@]2(C)[C@@H](CC[C@]2(C)O)[C@@H]2CCC3=CC(=O)CCC3=C12 [Product D, 11β-isopropenyl-17α-methyl-Δ^4,9-estradiene-17β-ol-3-one]	–	–	affinity on the order of that of testosterone	80
